Results reported in ChEMBL document CHEMBL3507680, “University of Dundee, Gates Library screen for HepG2 cell viability”.

Experiment: Human HepG2 cell viability assay in 384 well format
Assay type: toxicity, cell-based
Parameters: dose 125 nL, time 70.5 hour; concentration not given beside the values
Settings: HepG2 cells, read-out: Inhibition

SMILES	cytotoxicity at 70.5 h
COc1ccc(CCC(=O)N(C)CCN2CCOCC2)cc1OC	-7.02%
Cc1cnn(CC2CCCN2C(=O)Cc2c(C)noc2Cl)c1 (configuration not stated)	-4.41%
Cc1nccn1C1CCCN(C(=O)c2cnn(C)c2C2CC2)C1 (configuration not stated)	-0.648%
Cc1ncncc1C(=O)N1CCCC(n2ccnc2C)C1 (configuration not stated)	1.79%
CC1CCCCN1C(=O)c1n[nH]c(=O)c2ccccc12 (configuration not stated)	32.4%
CC(OCCCNC(=O)c1cccnc1O)c1ccccc1 (configuration not stated)	-1.73%
CC(=O)NCCNC(=O)c1ccc(C)c(-n2cccc2)c1	-10.2%
Cc1ccc(C(=O)NC2CCOc3ccccc32)cc1S(C)(=O)=O (configuration not stated)	27.5%
COC(=O)c1ccoc1CN(C)CC(=O)N(C)C	-8.41%
O=C(NCc1ccccc1F)N1CCCCC1C1OCCO1 (configuration not stated)	-17.1%
CCCc1noc(C(C)N2CCN(c3ccc(C#N)cn3)CC2)n1 (configuration not stated)	-10.8%
CC(c1nc(C(C)(C)C)no1)N1CCN(c2ccc(C#N)cn2)CC1 (configuration not stated)	-13.9%
Cn1ccc2c(C(=O)N3CCN(C(=O)C4CCCC4)CC3)cccc21	-5.41%
CC(=O)N(C)C1CCN(C(=O)c2cccc3c2ccn3C)CC1	24.8%
CC(C)C(C)NC(=O)Nc1ccc(CS(=O)(=O)C(C)C)cc1 (configuration not stated)	-12.6%
CNC(=O)C1CCCCN1C(=O)c1n[nH]c(=O)c2ccccc12 (configuration not stated)	-6.33%
O=C(CCNC(=O)c1cccc(OC(F)F)c1)Nc1cccnc1	-3.8%
COc1cccc2c1OCC(NC(=O)NCCc1ccccn1)C2 (configuration not stated)	-9.54%
CC(C)NC(=O)Nc1ccc(CS(C)(=O)=O)cc1	-0.657%
Cc1cnn(CC2CCCN2C(=O)CCc2c(C)nn(C)c2C)c1 (configuration not stated)	-18.5%
CC(C)c1ccc(C(CN)N2CCc3sccc3C2)cc1 (configuration not stated)	-2.57%
CCCc1noc(CCC(=O)N2CCCCC2Cn2cc(C)cn2)n1 (configuration not stated)	-13.5%
COc1cccc(N2CCN(CCC(=O)NC3CCCCC3)CC2)c1	16.7%
Cc1ccc(CCNC(=O)N2CCC(Cc3cnn(C)c3)C2)cn1 (configuration not stated)	-1.42%

SMILES	cytotoxicity at 70.5 h
COc1ccc(C(=O)NCCCOC(C)c2ccccc2)c(OC)c1 (configuration not stated)	-11.1%
Cc1cnn(CC2CCCN2C(=O)Cc2c(C)noc2C)c1 (configuration not stated)	-14%
CN(CCc1ccncc1)C1CCCN(Cc2noc(C3CC3)n2)C1 (configuration not stated)	-2.71%
Cc1ccc(O)c(CNC2CCc3nc(C)nn3C2)n1 (configuration not stated)	-0.718%
COCCOCC(=O)Nc1cc(C)ccc1F	4.73%
CCc1ccc(CC(=O)N2CCN(c3nccn3C)CC2)cc1	8.19%
CN(CCn1cccn1)C1CCCN(Cc2noc(C3CC3)n2)C1 (configuration not stated)	12.7%
CN(Cc1nc2ccccc2s1)C1CCCN(c2cccnn2)C1 (configuration not stated)	-11%
O=C(CN1CCS(=O)(=O)CC1)NCc1ccccc1F	-8.79%
CCCC(=O)NC(C)(C)Cc1ccccc1OC	-12.8%
CCSCCC(=O)NC1CCN(C(C)c2ccccc2)CC1 (configuration not stated)	-10.7%
N#CCCN(Cc1cccnc1)C(=O)c1cccc(-n2cnnn2)c1	-8.57%
COc1ccc(S(=O)(=O)C(C)C(=O)NCCOc2cccc(C)c2)cc1 (configuration not stated)	-3.65%
Cc1cccnc1CNC(=O)NC(C)Cc1c(C)nn(C)c1C (configuration not stated)	-5.5%
COC(=O)N1CCCC(C(=O)Nc2nc(C)c(SC)s2)C1 (configuration not stated)	-9.54%
CCc1nsc(N2CCN(C(=O)c3ccnc(N(C)C)c3)CC2)n1	-6.45%
Cn1cc(CNCCc2nccs2)c(-c2cccnc2)n1	-8.44%
Cc1nc(NC(=O)COCC2CC2)ccc1Br	-8.55%
CN(Cc1nc2ccccc2c(=O)[nH]1)C1CC(=O)N(C2CC2)C1=O (configuration not stated)	-12.1%
COC(=O)c1ccc(CNC(C)c2ccc(S(C)(=O)=O)cc2)cc1 (configuration not stated)	-1.14%
CC(=O)NCCNC(=O)NCCc1c(C)cc(C)cc1C	0.521%
Cc1ccc(F)c(S(=O)(=O)NCc2cccc(N3CCOC3=O)c2)c1	-4.03%
N#Cc1cnc(NCc2ccc(C(=O)NC3CC3)cc2)c(Cl)c1	-4.64%
CS(=O)(=O)Cc1ccc(CNc2ncc(C#N)cc2Cl)cc1	1.58%

SMILES	cytotoxicity at 70.5 h
Cc1c(NC(=O)NC2CCCC2)cccc1C(=O)N1CCSCC1	-3.56%
Cc1nc2scc(C)n2c1CNc1ccc(C(=O)O)cc1	19.2%
CCc1nc(CC(=O)N2CCC(C(=O)N3CCCC3)CC2)cs1	-9.83%
CN(Cc1nnnn1C1CC1)c1cccc2ccccc12	0.192%
Cc1nc(CNC(=O)Nc2ccc(N(C)C)nc2)sc1C	-2.95%
O=C1C(Sc2nc(=O)ccn2C2CC2)CCN1c1ccccc1 (configuration not stated)	0.555%
O=C(CC(F)(F)F)NCC(O)c1ccc2ccccc2c1 (configuration not stated)	-3.75%
CCOCC(=O)N1CC(=O)Nc2cc(Br)ccc21	-6.53%
CCOCCC(=O)N1CC(=O)Nc2cc(Br)ccc21	22%
O=C(Nc1ccccc1C(=O)N1CCCC1)NC1CCOCC1	-7.16%
CCC(CNS(=O)(=O)c1c[nH]cn1)Oc1ccccc1F (configuration not stated)	-2.67%
CCc1nc(CC(=O)N2CCC(C(=O)N(CC)CC)CC2)cs1	-11.2%
O=C(c1cccnc1)N(CCO)Cc1cc(Br)ccc1F	-3.63%
Cc1cc(OC(F)F)c(C(=O)N2CC[C@H](O)C2)s1	-6.12%
Cc1cc(C(=O)CN2CCN(c3ncccn3)CC2)c(C)n1C(C)C	12.3%
O=C(c1ccc(=O)[nH]n1)N(CCO)Cc1cc(Br)ccc1F	-5.4%
O=C(c1ccccn1)N(CCO)Cc1cc(Br)ccc1F	17.2%
CC(=O)N1CCCN(C(=O)c2ccc(Sc3ccccn3)cc2)CC1	-8.48%
COc1ccccc1C1(CNCc2ccc(C#N)cc2)CCOCC1	-6.31%
Cc1noc(C(C)NC(=O)[C@@H](C)NC(=O)OC(C)(C)C)n1 (some centres not stated)	-3.59%
Cc1noc(CNC(=O)[C@@H](C)NC(=O)OC(C)(C)C)n1	-2.55%
CCC(CC)(CNC(=O)NC1CCCC1(C)C)S(C)(=O)=O (configuration not stated)	-7.23%
Cn1cnnc1C1CCCN1C(=O)Nc1cccc(OC(F)F)c1 (configuration not stated)	-1.48%
Cc1cc(OC(F)F)c(C(=O)N2CCC(N(C)C)CC2)s1	31.3%

SMILES	cytotoxicity at 70.5 h
COc1ccccc1C1(CNCc2ccc([S+](C)[O-])cc2)CC1 (configuration not stated)	-6.54%
COc1ccc(OC)c(-n2nnnc2SCC2CCCN(C)C2)c1 (configuration not stated)	-3.08%
O=C(c1cccc(CNC/C=C/c2ccccc2)c1)N1CCCC1	4.26%
CCc1sc(-c2nnc(CNCCn3cccn3)o2)cc1C	-0.343%
CC(NCCCC#N)c1ccc(-c2cccnc2)cc1 (configuration not stated)	-2.12%
Cc1ccc(S(=O)(=O)NC(=O)COc2ccc(CC#N)cc2)s1	2.71%
CC1CCN(c2ccc(CNC(=O)NCCn3ccnc3)cn2)CC1	-0.689%
COCCCNC(=O)NCc1ccc(N2CCOC(C)C2)nc1 (configuration not stated)	17.1%
Cc1cc(CS(=O)(=O)C(C)c2ccc(F)cc2)on1 (configuration not stated)	-5.55%
CCc1sc(C(=O)Nc2cnn(CC(=O)NC3CC3)c2)cc1C	-8.41%
CC1(C)Oc2ccc(NC(=O)c3ccc(=O)[nH]n3)cc2O1	-12.5%
CN(C)c1ncc(CNC(=O)Nc2ccccc2C(F)(F)F)n1C	18.7%
Cc1ccc2c(c1)OC(C)CN2C(=O)Cc1ccc(C)nc1 (configuration not stated)	-0.93%
CC(CCN(C)C)NC(=O)c1cccc(C(F)(F)F)c1F (configuration not stated)	-1.47%
Cc1csc(N(C)C(=O)C(c2c(F)cccc2Cl)N(C)C)n1 (configuration not stated)	-0.598%
CC(CCN1CCOCC1)NC(=O)c1cccc(C(F)(F)F)c1F (configuration not stated)	-5.66%
Cc1c(C(C)NC(=O)Nc2ccc(F)c(F)c2)cnn1C (configuration not stated)	-3.96%
COc1ccc2cc(CNc3c(C)nn(C(C)C)c3C)ccc2c1	-0.974%
O=C(CN1CCCC(c2ccn[nH]2)C1)Nc1nc2c(s1)CCCC2 (configuration not stated)	1.65%
CCN(Cc1noc(CC(C)C)n1)Cc1ccccc1C	-1.58%
Cc1nnc(NC(=O)CN2CCCC(c3ccn[nH]3)C2)s1 (configuration not stated)	18.6%
CC(C)NC(=O)CC(C)NCc1ccc(F)cc1Cl (configuration not stated)	-3.7%
CC(C)NC(=O)CC(C)NCc1cc(Cl)ccc1F (configuration not stated)	-3.06%
Cc1ccc2cc(C(=O)N3CCC(O)(C(F)(F)F)CC3)ccc2n1	0.437%

SMILES	cytotoxicity at 70.5 h
Cc1cc(C2CCCN(CC(=O)Nc3nc4c(s3)CCC4)C2)n[nH]1 (configuration not stated)	18.9%
CC1CCCN1C1CCN(C(=O)c2cccc(-c3ccoc3)c2)CC1 (configuration not stated)	10.8%
CCS(=O)(=O)c1ccc(NCc2csc(C(C)C)n2)cc1	4.81%
Cc1ccc(OCCNC(=O)C2CCOCC2)c(C)c1	35.7%
Cc1noc(C)c1CN(C)c1ncnc2ccccc12	-6.84%
c1ccc2[nH]c(C3CCN(Cc4nc(C5CC5)no4)CC3)cc2c1	-1.32%
COc1cccc(OCc2nnc3n2N=C(C(C)(C)C)CS3)c1	-8.92%
CN(CC(N)=O)CC(=O)N(C1=CCCCC1)C1CC1	-10.7%
c1ccc2[nH]c(C3CCN(Cc4noc(C5CC5)n4)CC3)cc2c1	-3.83%
CCOc1ccc(C#N)cc1NC(=O)N1CCCC(NC(=O)CC)C1 (configuration not stated)	-7.12%
CCNC(=O)C1CCCN(C(=O)Nc2cc(C#N)ccc2OCC)C1 (configuration not stated)	0.887%
Cc1oc(C(=O)O)cc1S(=O)(=O)Nc1cccc(-c2nccs2)c1	6.48%
Cc1ccc(NS(=O)(=O)c2cc(C(=O)O)oc2C)c(Br)c1	-6.35%
O=C(CN1CCSCC1c1ccccc1)N1CCCC1 (configuration not stated)	20%
Cc1cccc(NS(=O)(=O)c2cc(C(=O)O)oc2C)c1	-0.669%
CN(C)C(=O)c1cc(NC(=O)N2CCCC(C(F)(F)F)C2)ccn1 (configuration not stated)	-1.06%
Cc1oc(C(=O)O)cc1S(=O)(=O)Nc1ccc(Cl)c(Cl)c1	-3.75%
CC(C)(C)c1nnc(CN2CCC(c3cc4ccccc4[nH]3)CC2)o1	17.4%
CN(CC(C)(C)O)C(=O)Nc1ccc(F)c(-n2cccc2)c1	-9.2%
CNC(=O)C(C)CN(C)C(=O)Nc1ccc(Cl)cc1-n1cccc1 (configuration not stated)	4.05%
CCCNCc1cn(Cc2ccccc2)nc1-c1cccnc1	-8.99%
